Drawing on patent publication US9675697B2 (THE REGENTS OF THE UNIVERSITY OF MICHIGAN, priority 2013, dated 2017), this text covers Ki and IC50 for one compound.

One test addresses BRD3 BD2 (Homo sapiens (Human), UniProt Q15059). Briefly: FP competitive binding assay using Cpd. No. 350 as the probe. Conditions: read-out: BRD3 BD2 Ki; FP, Cpd. No. 350 probe […].
For a further test, the target named is BRD4 BD1 (Homo sapiens (Human), UniProt O60885). The test is described as above. The following applies: read-out: BRD4 BD1 Ki; FP, Cpd. No. 350 probe […].
The target of the next test is BRD2 BD2 (Homo sapiens (Human), UniProt P25440). Described as above. Conditions: read-out: BRD2 BD2 Ki; FP, Cpd. No. 350 probe […].
BRD2 BD2, sequence (P25440 344-453): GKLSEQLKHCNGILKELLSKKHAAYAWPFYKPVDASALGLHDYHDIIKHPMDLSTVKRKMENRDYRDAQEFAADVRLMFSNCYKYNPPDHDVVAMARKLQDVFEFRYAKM
The target in a further test is BRD3 BD1 (Homo sapiens (Human), UniProt Q15059). The test is described as above. Conditions: read-out: BRD3 BD1 Ki; FP, Cpd. No. 350 probe […].
BRD3 BD1, sequence (Q15059 34-140): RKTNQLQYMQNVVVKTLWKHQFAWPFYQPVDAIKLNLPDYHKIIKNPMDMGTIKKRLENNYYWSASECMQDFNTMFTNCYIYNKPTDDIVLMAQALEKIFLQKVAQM
The next test concerns the target BRD4 BD2 (Homo sapiens (Human), UniProt O60885). The description is as above. The following applies: read-out: BRD4 BD2 Ki; FP, Cpd. No. 350 probe […].
The subject of a further test is MV-4-11. Briefly: Cell growth inhibition, CellTiter-Glo, acute leukemia cell line. Format: cell-based. Conditions: Homo sapiens, MV4-11, 96 h, 4 days. As for the experimental part:
(§1) Cell growth inhibitory activity of representative BET bromodomain inhibitors was determined using CellTiter-Glo® Luminescent Cell Viability Assay. For leukemia cell lines MV-4-11 (ATCC, Manassas, Va.) and MOLM-13 (DSMZ, Germany), cells were seeded in 96-well white opaque cell culture plates at a density of 10,000 cells/well with serially diluted compounds and incubated at 37° C. in an atmosphere of 95% air and 5% CO2 for 4 days. Cell viability was determined using the CellTiter-Glo® Luminescent Cell Viability Assay Kit (Promega, Madison, Wis.) according to the manufacture's instruction. Briefly, a volume of CellTiter-Glo® Reagent equal to the volume of cell culture medium was added to each well, and then the plates were incubated at room temperature for 10-20 minutes. The luminescent signal was measured using a Tecan Infinite M1000 multimode microplate reader (Tecan, Morrisville, N.C.). The half maximal inhibitory concentration (IC50) was calculated using the GraphPad Prism 5 software (GraphPad Software, La Jolla, Calif.).

In a further test the test system is MOLM-13. The test is described as above. Conditions: Homo sapiens, MOLM-13, 96 h, 4 days. Format: cell-based. The procedure: as §1
The subject of another test is MDA-MB-231. Briefly: Cell growth inhibition, WST-8, breast cancer cell line. The following applies: Homo sapiens, MDA-MB-231, 96 h, 4 days. Format: cell-based. The procedure:
(§2) For breast cancer cell lines, cells were seeded in 96-well cell culture plates at a density of 5,000-10,000 cells/well with serially diluted compounds and incubated at 37° C. in an atmosphere of 95% air and 5% CO2 for 4 days. All the breast cancer cell lines were obtained from the ATCC. Cell viability was determined using the WST-8 (2-(2-methoxy-4-nitrophenyl)-3-(4-nitrophenyl)-5-(2,4-disulfophenyl)-2H-tetrazolium, monosodium salt) based Cell Counting-8 Kit (Dojindo Molecular Technologies, Inc., Rockville, Md.) according to the manufacture's instruction. Briefly, WST-8 was added to each well at a final concentration of 10% (v/v), and then the plates were incubated at 37° C. for 1-2 hours for color development. The absorbance was measured at 450 nm using a SPECTRAmax PLUS plate reader (Molecular Devices, Sunnyvale, Calif.). The IC50 was calculated using the GraphPad Prism 5 software.

The next test concerns MDA-MB-436. The test is described as above. Format: cell-based. Conditions: Homo sapiens, MDA-MB-436, 96 h, 4 days. The procedure: as §2
In the next test the test system is MDA-MB-157. The test is described as above. Format: cell-based. Conditions: Homo sapiens, MDA-MB-157, 96 h, 4 days. The procedure:
as §2

A further test concerns SK-BR-3. Described as above. Format: cell-based. The following applies: Homo sapiens, SK-BR-3, 96 h, 4 days. The procedure: as §2
For a further test, the system named is BT-474. The test is described as above. Format: cell-based. Conditions: Homo sapiens, BT-474, 96 h, 4 days. The procedure:
as §2

Another test has as its target BRD2 BD1 (Homo sapiens (Human), UniProt P25440). In words: FP competitive binding assay using Cpd. No. 350 as the probe. The following applies: read-out: BRD2 BD1 Ki; FP, Cpd. No. 350 probe […].
The next test relates to prostate VCaP cell line. Briefly: Cell growth inhibition, Cell TiterGLO, 4 days. Format: cell-based. Conditions: Homo sapiens, VCaP, 96 h, treated 4 days, read-out: VCaP cells (IC50 (nM)).

BRD3 BD2, sequence (Q15059 306-415): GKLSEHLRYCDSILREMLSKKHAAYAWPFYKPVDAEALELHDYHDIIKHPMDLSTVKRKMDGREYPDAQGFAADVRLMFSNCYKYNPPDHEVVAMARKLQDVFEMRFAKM
BRD2 BD1, sequence (P25440 74-180): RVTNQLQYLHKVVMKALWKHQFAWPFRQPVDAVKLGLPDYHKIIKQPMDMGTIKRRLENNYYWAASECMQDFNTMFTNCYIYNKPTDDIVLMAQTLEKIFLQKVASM
Procedure for BRD3 BD1: (§3) Fluorescence Polarization (FP) competitive binding studies (see above) were carried out using the FAM labeled fluorescent probe Cpd. No. 350 to determine binding affinities of representative compounds to both BD1 and BD2 of BRD2, BRD3, and BRD4 proteins. Equilibrium dissociation constants (Id) values of Cpd. No. 350 to these six proteins were determined from protein saturation experiments by monitoring the total fluorescence polarization of mixtures composed with the fluorescent probe at a fixed concentration and proteins with increasing concentrations up to full saturation. Serial dilutions of testing protein were mixed with Cpd. No. 350 to a final volume of 200 μl in the assay buffer. […] Plates were incubated at room temperature for 30 minutes with gentle shaking to assure equilibrium. […] Kd values of Cpd.
(§4) The IC50 and Ki values of compounds were determined in a competitive binding experiment as described above. […] FP values were measured as described above. IC50 values were determined by nonlinear regression fitting of the competition curves.
Procedure for BRD3 BD2: as §3, §4
Procedure for BRD4 BD1: as §3, §4

Take `COc1cc2c(cc1-c1c(C)noc1C)[nH]c1nc(C)nc(-c3c(C)[nH]c4ccccc34)c12` [Cpd. No. 68]: the inhibition constant (Ki) at BRD3 BD2 amounted to 0.65 nM; on BRD4 BD1 it was 7.3 nM; on BRD2 BD2, 2.7 nM; at BRD3 BD1, 5.1 nM; at BRD4 BD2, 1.7 nM; on BRD2 BD1, 3.2 nM. The half-maximal inhibitory concentration (IC50) is < 100 nM in the test on MV-4-11; < 100 nM with MOLM-13; < 300 nM in the test with MDA-MB-231; < 300 nM in the test with MDA-MB-436; < 300 nM in the test with MDA-MB-157; < 300 nM in the test on SK-BR-3. The results for the IC50 with BT-474 and with prostate VCaP cell line were < 300 nM and 148 nM, respectively.
